Blank lines part the entries; values can stand above or below the molecule they belong to.
Legend:
rat OPC = test: Monoculture rat OPC differentiation assay; settings: alone or in combination with miconazole
mSGPL1 [1] = biological target: T1, mSGPL1 (Mus musculus, UniProt Q8R0X7); test: AEA-DA probe interactions with mSGPL1 in vitro; format: binding; settings: Fig. S3c
T1 sequence (Q8R0X7 1-568): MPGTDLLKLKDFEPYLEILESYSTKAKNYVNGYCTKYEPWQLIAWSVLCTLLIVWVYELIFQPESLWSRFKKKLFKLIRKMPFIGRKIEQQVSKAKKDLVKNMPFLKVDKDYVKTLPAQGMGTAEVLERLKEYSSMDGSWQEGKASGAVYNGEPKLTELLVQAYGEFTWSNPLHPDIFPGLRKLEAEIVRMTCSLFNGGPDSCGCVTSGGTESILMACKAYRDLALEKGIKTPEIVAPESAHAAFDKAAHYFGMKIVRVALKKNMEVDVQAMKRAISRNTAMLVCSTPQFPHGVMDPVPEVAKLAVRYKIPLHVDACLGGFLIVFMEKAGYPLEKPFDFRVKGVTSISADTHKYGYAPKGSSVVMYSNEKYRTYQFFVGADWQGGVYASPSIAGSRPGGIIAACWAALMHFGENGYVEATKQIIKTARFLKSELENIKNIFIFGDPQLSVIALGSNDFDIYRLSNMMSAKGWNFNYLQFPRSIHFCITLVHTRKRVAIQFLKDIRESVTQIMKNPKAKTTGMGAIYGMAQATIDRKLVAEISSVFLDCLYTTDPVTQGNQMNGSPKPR

ABHD10 = biological target: T2, ABHD10 (Homo sapiens, UniProt Q9NUJ1); test: LiPIP probe competition in HEK293T cells, off-target ABHD10; format: binding; settings: ligand 25 μM
T2 sequence (Q9NUJ1 53-306): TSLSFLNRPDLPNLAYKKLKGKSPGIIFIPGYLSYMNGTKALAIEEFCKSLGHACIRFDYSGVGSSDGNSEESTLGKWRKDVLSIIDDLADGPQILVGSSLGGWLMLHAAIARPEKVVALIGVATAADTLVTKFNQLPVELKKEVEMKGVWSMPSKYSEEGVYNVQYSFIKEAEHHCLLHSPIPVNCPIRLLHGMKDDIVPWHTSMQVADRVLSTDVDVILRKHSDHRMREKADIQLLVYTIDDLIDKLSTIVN

ABHD5 = biological target: T3, ABHD5 (Homo sapiens, UniProt Q8WTS1); test: LiPIP; format: binding; settings: ligand at both 5 and 25 μM; probe 10 μM; HEK293T cells
T3 sequence (Q8WTS1 1-349): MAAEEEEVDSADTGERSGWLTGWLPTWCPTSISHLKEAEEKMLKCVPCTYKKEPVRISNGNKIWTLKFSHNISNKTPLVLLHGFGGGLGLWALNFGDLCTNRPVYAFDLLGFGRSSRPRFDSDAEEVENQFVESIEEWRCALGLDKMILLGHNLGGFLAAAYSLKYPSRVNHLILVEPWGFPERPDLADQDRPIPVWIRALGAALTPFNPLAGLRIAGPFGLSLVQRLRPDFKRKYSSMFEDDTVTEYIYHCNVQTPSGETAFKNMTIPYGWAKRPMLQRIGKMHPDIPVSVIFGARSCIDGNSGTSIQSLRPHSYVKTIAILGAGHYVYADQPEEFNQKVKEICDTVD

PNPLA2 = biological target: T4, PNPLA2 (Homo sapiens, UniProt Q96AD5); test: LiPIP probe competition in HEK293T cells, PNPLA2; format: binding; settings: unaltered lipid probe enrichment ratio
T4 sequence (Q96AD5 1-504): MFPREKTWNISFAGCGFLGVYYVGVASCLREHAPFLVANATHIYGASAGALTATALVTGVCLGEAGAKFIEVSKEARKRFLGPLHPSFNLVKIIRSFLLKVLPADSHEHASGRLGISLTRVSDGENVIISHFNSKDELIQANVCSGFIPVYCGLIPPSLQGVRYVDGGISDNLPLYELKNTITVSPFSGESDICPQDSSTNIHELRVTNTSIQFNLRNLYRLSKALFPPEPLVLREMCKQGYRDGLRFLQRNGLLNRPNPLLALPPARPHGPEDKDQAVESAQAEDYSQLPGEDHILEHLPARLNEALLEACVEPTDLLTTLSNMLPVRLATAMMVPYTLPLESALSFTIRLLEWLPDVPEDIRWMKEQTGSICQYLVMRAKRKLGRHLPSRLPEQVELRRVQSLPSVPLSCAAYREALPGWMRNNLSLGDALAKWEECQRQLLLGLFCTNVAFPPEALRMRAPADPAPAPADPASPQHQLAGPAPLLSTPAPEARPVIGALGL

EPHX2 = biological target: T5, EPHX2 (Homo sapiens, UniProt P34913); test: LiPIP probe competition in HEK293T cells, off-target EPHX2; format: binding; settings: ligand 25 μM
T5 sequence (P34913 1-555): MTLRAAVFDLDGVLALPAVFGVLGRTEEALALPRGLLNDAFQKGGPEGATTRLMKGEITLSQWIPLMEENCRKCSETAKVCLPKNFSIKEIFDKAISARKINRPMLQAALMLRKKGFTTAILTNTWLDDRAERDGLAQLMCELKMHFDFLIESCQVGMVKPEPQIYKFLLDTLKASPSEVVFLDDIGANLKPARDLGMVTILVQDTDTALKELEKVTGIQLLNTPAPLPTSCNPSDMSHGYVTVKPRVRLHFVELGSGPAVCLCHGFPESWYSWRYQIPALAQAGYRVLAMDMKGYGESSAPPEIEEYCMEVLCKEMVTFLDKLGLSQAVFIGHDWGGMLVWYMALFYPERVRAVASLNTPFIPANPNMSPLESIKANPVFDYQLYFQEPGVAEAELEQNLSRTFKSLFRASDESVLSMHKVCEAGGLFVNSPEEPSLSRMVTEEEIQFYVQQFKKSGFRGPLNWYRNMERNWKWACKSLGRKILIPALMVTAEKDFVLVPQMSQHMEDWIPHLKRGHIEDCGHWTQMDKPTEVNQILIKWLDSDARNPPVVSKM

hSGPL1 = biological target: T6, hSGPL1 (Homo sapiens, UniProt O95470); format: biochemical
T6 sequence (O95470 1-568): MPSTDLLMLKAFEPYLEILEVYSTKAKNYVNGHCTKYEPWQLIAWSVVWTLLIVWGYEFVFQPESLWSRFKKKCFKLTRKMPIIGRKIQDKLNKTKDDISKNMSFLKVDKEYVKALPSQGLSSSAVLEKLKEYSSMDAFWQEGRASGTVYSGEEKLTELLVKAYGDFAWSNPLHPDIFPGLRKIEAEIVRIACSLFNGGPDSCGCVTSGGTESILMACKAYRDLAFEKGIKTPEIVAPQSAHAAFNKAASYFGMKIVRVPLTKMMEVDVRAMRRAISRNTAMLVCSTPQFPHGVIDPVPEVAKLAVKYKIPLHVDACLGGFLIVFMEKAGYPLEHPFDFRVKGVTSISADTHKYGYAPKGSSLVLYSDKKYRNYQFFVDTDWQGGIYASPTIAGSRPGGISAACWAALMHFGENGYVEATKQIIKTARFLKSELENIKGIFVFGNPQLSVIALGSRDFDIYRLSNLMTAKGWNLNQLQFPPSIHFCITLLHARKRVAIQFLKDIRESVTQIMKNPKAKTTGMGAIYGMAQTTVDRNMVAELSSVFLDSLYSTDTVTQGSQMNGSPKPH

[2] = tested on: oligodendrocyte precursor cell (OPC); settings: cited from earlier work
Neuro2a cells = test: Endogenous S1P content of Neuro2a cells by targeted LC-MS/MS; format: cell-based, mouse; settings: 6 h treatment
SGPL1 = biological target: T7, SGPL1 (Mus musculus, UniProt Q8R0X7); test: LiPIP in Neuro2a cells, SGPL1; format: binding; settings: drug 30 μM, lipid probe 10 μM
T7 sequence (Q8R0X7 1-568): T1 sequence (Q8R0X7 1-568)

mSGPL1 [3] = biological target: T1, mSGPL1; test: Gel-based blockade of AEA-DA labeling of recombinant mSGPL1 in HEK293T cells; format: binding; settings: recombinant mSGPL1 expressed in HEK293T cells; AEA-DA 2 μM
CLPP = CLPP (Mus musculus, UniProt O88696); test: LiPIP in Neuro2a cells, CLPP; format: binding; settings: drug 30 μM, lipid probe 10 μM
CLPP, sequence (O88696 53-272): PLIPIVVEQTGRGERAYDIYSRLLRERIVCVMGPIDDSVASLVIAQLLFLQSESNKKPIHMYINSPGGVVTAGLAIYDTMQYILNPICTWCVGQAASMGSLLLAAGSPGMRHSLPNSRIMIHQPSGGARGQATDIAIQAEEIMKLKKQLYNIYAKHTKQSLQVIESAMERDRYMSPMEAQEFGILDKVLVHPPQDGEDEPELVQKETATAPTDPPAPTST

EPHX1 = biological target: T8, EPHX1 (Mus musculus, UniProt Q9D379); test: LiPIP in Neuro2a cells, EPHX1; format: binding; settings: drug 30 μM, lipid probe 10 μM
T8 sequence (Q9D379 1-455): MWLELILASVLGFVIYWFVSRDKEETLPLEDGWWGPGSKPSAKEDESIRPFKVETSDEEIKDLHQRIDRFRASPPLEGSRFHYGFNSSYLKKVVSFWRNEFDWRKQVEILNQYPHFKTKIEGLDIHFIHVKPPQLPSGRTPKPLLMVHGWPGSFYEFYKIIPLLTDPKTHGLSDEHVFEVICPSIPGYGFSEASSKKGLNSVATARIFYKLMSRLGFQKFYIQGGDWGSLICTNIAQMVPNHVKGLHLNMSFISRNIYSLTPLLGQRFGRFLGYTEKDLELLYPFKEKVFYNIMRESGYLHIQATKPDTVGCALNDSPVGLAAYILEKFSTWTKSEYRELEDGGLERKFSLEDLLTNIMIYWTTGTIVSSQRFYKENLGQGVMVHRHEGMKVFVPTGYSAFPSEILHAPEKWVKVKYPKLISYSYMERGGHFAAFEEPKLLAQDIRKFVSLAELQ

rSGPL1 = biological target: T9, rSGPL1 (Rattus norvegicus, UniProt Q8CHN6); format: biochemical; settings: tested at concentrations up to 200 μM
T9 sequence (Q8CHN6 1-568): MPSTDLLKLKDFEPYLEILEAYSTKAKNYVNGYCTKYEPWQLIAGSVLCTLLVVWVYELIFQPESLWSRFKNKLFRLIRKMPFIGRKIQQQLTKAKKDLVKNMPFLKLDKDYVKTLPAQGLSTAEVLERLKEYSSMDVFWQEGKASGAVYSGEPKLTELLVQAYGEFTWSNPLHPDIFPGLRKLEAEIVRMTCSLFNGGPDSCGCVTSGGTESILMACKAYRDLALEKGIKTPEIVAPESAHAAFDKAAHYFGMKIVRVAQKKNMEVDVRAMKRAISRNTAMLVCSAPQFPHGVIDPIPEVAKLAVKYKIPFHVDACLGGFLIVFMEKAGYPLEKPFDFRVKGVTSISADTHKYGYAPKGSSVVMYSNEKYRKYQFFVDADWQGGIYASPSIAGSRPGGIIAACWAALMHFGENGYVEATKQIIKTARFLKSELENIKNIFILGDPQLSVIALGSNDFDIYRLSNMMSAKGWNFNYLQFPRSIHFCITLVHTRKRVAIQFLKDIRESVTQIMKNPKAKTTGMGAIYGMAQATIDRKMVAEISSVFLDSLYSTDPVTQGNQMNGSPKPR

TMEM97 = biological target: T10, TMEM97 (Mus musculus, UniProt Q8VD00); test: LiPIP in Neuro2a cells, TMEM97; format: binding; settings: drug 30 μM, lipid probe 10 μM
T10 sequence (Q8VD00 1-176): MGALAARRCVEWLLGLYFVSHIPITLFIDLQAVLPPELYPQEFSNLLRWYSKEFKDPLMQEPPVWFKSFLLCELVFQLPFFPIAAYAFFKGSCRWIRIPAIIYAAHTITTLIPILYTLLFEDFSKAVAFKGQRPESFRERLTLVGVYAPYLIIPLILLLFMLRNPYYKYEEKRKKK

mSGPL1 [4] = biological target: T1, mSGPL1; format: biochemical; settings: tested at concentrations up to 200 μM

SMILES: CCCCCCCCc1ccc(CC[C@](N)(CO)COP(=O)(O)O)cc1 [(S)-pFTY720]
effect on OPC differentiation (MBP+ cells) (rat OPC): no impact on OPC differentiation

SMILES: CCCCCCCCCCCCC/C=C/[C@@H](O)[C@@H](N)COP(=O)(O)O [S1P, sphingosine 1-phosphate]
blockade of AEA-DA probe interactions with mSGPL1 in vitro (mSGPL1 [1]): inhibited AEA-DA binding to SGPL1

SMILES: C[C@@H]1CN(c2nnc(Cc3ccccc3)c3ccc(C#N)cc23)CCN1c1ccc(C#N)cn1 [compound 11, (R)-1-benzyl-4-(4-(5-cyanopyridin-2-yl)-3-methylpiperazin-1-yl)phthalazine-6-carbonitrile]
effect on OPC differentiation (MBP+ cells) (rat OPC): did not promote OPC differentiation

Second part, led by results:

SILAC ratio (LiPIP probe displacement), ABHD10 (ABHD10): ≥ 3.0
blocking the A-DA or AEA-DA probe interaction with ABHD5 (ABHD5): > 80%
engagement of PNPLA2 (lipid probe enrichment ratio) (PNPLA2): not directly engaged
SMILES: Cc1ccc2c(CC(=O)N3CCN(S(=O)(=O)c4ccc5c(c4)OCCO5)CC3)coc2c1 [SR-4559]

SILAC ratio (LiPIP probe displacement), EPHX2 (EPHX2): ≥ 3.0
blocking the A-DA or AEA-DA probe interaction with ABHD5 (ABHD5): > 80%
engagement of PNPLA2 (lipid probe enrichment ratio) (PNPLA2): not directly engaged
SMILES: CCCCNC(=O)Nc1ccc2c(c1)N(C)C(=O)c1ccccc1S2 [SR-4995]

IC50 (hSGPL1): 6.5 µM
maximal inhibition of hSGPL1 (plateau) (hSGPL1; fluorogenic S1P substrate analog): 40%
SMILES: Clc1ccc(COC(Cn2ccnc2)c2ccc(Cl)cc2Cl)c(Cl)c1 (stereo not drawn) [miconazole]
OPC differentiation by phenotypic screening [2]: promote oligodendrocyte precursor cell (OPC) differentiation
effect on endogenous S1P content (Neuro2a cells): increased the endogenous S1P content
effect on OPC differentiation (MBP+ cells) (rat OPC): promotion of rat OPC differentiation

SILAC ratio (light/heavy), SGPL1 (SGPL1): ~ 1.0
inhibition of hSGPL1 activity (hSGPL1; tested at concentrations up to 200 μM): did not inhibit
blockade of AEA-DA probe binding to mSGPL1 (mSGPL1 [3]): but not voriconazole
SILAC ratio (light/heavy), CLPP (CLPP): ~ 1.0
SILAC ratio (light/heavy), EPHX1 (EPHX1): ~ 1.0
inhibition of rSGPL1 activity (rSGPL1): did not inhibit
SILAC ratio (light/heavy), TMEM97 (TMEM97): ~ 1.0
inhibition of mSGPL1 activity (mSGPL1 [4]): did not inhibit
blockade of AEA-DA probe interactions with mSGPL1 in vitro (mSGPL1 [1]): but not voriconazole
SMILES: C[C@@H](c1ncncc1F)[C@](O)(Cn1cncn1)c1ccc(F)cc1F [voriconazole]
OPC differentiation by phenotypic screening [2]: inactive

Reference: PMC5650530 (ACS chemical biology, 2017)
